Data reported in patent publication US10945612B2, “Assessing endothelial function using a blood pressure cuff” (The Regents of the University of California, priority 2014, dated 2021).
“Also recorded” adds a separate entry of the source.

Legend:
[1] = system: NO synthase; experiment: Cuff single pulse waveforms after endothelial stimulation with NO synthase blocked by L-NAME; format: in vivo, human; details: cuff inflated to 70 mm Hg; NO synthase blocked via L-NAME
Description: Both the amplitude and slope of the rising edge of the pulse increase markedly after endothelial stimulation.
In an artery with intact endothelial function, both pulse height (maximal cross-sectional arterial area) and compliance (maximum slope of the rising edge) increase markedly over baseline. […] FIG. 4 illustrates how a five minute cuff occlusion and the ensuring reactive hyperemia lead to major increases in area change per pulse and the maximum derivative of the area per pulse. Both metrics return to baseline levels after 20 minutes. FIG. 5 confirms the repeatability of the protocol by illustrating the effects of a series of two cuff occlusion periods. We see from FIG. 6 that only a small slow drift in the measured quantities occurs when no reactive hyperemic stimulus is applied.

[2] = system: brachial artery; experiment: Cuff-based measurement of vasodilation (pulse amplitude relative to baseline) after sublingual nitroglycerin; format: in vivo, human
Experimental: Three individuals in the age-range of 28-38 were examined. All subjects had Framingham risk scores of 1% or less, and had no history of cardiovascular disease. Each individual was assessed at least three times before and after RH induced by five minutes of suprasystolic cuff occlusion. At least one additional measurement was made using the same protocol, except without cuff inflation. Sensitivity to a 0.4 mg dose of sublingual NG was assessed three times in two individuals.
Sensitivity to a 0.4 mg dose of sublingual NG was assessed three times in two individuals. In the analysis that follows, all of the datasets are pooled by stimulus. This addresses the question: Can the method measure changes in arterial tone due to vasorelaxatory stimuli and with what sensitivity?
A single quantity relating to the recorded pressure data, the pulse amplitude, was studied and it was posited that this is proportional to the arterial area. During the post stimulus interval, pressure data from the cuff were recorded approximately every 80 seconds, for a period of 30 seconds. During each recording interval, the cuff was inflated to 70 mm Hg, which was always below the measured diastolic pressure of the subject. To quantify the observed response, the mean of the pulse quantity (in this case, amplitude) during the response interval was divided by the mean value of the same quantity during the baseline interval. FIG. 10 illustrates the results.
v) The stimulus is applied. This is either 1-5 min of cuff occlusion to suprasystolic pressure Ps (for studies of endothelial function) or a dose of sublingual NG (for studies of endothelium-independent vasodilation).
(vi) After Tp=45 s have elapsed following cuff release or drug administration, a series of up to Nr=10 repeat measurement intervals ensue. In each interval, the cuff is inflated to Pm for Tm seconds, after which it is deflated for Tw seconds. This large number of repeat measurements (Nr)) is required only when one wishes to record the return of the vessel toward baseline.
[formula] and reported, e.g., to the user. […]

[3] = system: smooth muscle; details: 400 μg sublingual dose; Feldman et al. (1979), Adams et al. (1998); cited from earlier work

| Compound | compliance (maximum slope of the rising edge) increase over baseline after endothelial stimulation [1] | pulse height (maximal cross-sectional arterial area) increase over baseline after endothelial stimulation [1] | cDmax % ([2]; 400 μg sublingual NG, maximal vasodilation by the cuff-based method, relative to baseline) [%] | Mean ± SEM of maximum response over all data sets (dilation response) ([2]; 400 μg sublingual NG, ratio to baseline, pooled data sets) | Mean ± SEM of maximum Response over all data sets (amplitude response) ([2]; 0.4 mg sublingual NG, mean pulse amplitude in response interval divided by baseline, cuff at 70 mm Hg, pooled data sets) | smooth muscle dilation [3] |
| --- | --- | --- | --- | --- | --- | --- |
| COC(=O)[C@@H](N)CCCNC(=N)N[N+](=O)[O-] [L-NAME] | greatly attenuates this response; also recorded: greatly attenuated | greatly attenuates this response; also recorded: greatly attenuated | – | – | – | – |
| O=[N+]([O-])OCC(CO[N+](=O)[O-])O[N+](=O)[O-] [NG, nitroglycerin] | – | – | 70 | 1.70 ± 0.036 | 1.70 ± 0.036 | maximal smooth muscle dilation |
